Assay results reported in ChEMBL document CHEMBL6074661, “Structural Modification and Pharmacological Evaluation of (Thiadiazol-2-yl)pyrazines as Novel Piezo1 Agonists for the Intervention of Disuse Osteoporosis” (J Med Chem, 2024).
In brackets after ≈: the same amount, converted by molar mass. Activity calls are given as the source filed them. The calls are words filed in the database; no cut-off is given here.

Experiments:
[1] = target: Piezo-type mechanosensitive ion channel component 1 (Mus musculus) (UniProt E2JF22); assay: Agonist activity at Piezo1 in mouse C3H 10T1/2 cells assessed as influx of calcium ions by measuring change in ratio of calcium fluorescence at 20 uM incubated for 2 hrs by Cal-bryte 520 AM dye based analysis relative to control; format: cell-based
[2] = Metabolic stability in dog liver microsomes assessed as half life at 10 uM measured for 60 mins by LC-MS/MS analysis; format: ADME, Canis lupus familiaris, Microsome
[3] = Aqueous solubility of compound at pH 7.4 incubated for 10 mins by HPLC analysis; format: physicochemical; details: aqueous medium
[4] = Apparent permeability in MDCK cells; format: ADME, cell-based, Canis lupus familiaris; details: dog
[5] = Metabolic stability in dog liver microsomes assessed as intrinsic clearance at 10 uM measured for 60 mins by LC-MS/MS analysis; format: ADME, Canis lupus familiaris, Microsome; details: read-out: CLH
[6] = Toxicity in hind-limb unloading Sprague-Dawley rat model assessed as change in liver function at 5 uM/kg, ip administered on day 1, 4, 7, 10, 13 and measured on day 14; format: organism-based; details: in vivo, 336 h, time 14 day
[7] = Metabolic stability in mouse liver microsomes assessed as intrinsic clearance at 10 uM measured for 60 mins by LC-MS/MS analysis; format: ADME, Microsome; details: read-out: CLH
[8] = target: T1, Piezo-type mechanosensitive ion channel component 1 (Mus musculus, UniProt E2JF22); assay: Agonist activity at Piezo1 in mouse C3H 10T1/2 cells assessed as influx of calcium ions incubated for 2 hrs by Cal-bryte 520 AM dye based analysis; format: cell-based
Target sequence in this assay (E2JF22 whole entry): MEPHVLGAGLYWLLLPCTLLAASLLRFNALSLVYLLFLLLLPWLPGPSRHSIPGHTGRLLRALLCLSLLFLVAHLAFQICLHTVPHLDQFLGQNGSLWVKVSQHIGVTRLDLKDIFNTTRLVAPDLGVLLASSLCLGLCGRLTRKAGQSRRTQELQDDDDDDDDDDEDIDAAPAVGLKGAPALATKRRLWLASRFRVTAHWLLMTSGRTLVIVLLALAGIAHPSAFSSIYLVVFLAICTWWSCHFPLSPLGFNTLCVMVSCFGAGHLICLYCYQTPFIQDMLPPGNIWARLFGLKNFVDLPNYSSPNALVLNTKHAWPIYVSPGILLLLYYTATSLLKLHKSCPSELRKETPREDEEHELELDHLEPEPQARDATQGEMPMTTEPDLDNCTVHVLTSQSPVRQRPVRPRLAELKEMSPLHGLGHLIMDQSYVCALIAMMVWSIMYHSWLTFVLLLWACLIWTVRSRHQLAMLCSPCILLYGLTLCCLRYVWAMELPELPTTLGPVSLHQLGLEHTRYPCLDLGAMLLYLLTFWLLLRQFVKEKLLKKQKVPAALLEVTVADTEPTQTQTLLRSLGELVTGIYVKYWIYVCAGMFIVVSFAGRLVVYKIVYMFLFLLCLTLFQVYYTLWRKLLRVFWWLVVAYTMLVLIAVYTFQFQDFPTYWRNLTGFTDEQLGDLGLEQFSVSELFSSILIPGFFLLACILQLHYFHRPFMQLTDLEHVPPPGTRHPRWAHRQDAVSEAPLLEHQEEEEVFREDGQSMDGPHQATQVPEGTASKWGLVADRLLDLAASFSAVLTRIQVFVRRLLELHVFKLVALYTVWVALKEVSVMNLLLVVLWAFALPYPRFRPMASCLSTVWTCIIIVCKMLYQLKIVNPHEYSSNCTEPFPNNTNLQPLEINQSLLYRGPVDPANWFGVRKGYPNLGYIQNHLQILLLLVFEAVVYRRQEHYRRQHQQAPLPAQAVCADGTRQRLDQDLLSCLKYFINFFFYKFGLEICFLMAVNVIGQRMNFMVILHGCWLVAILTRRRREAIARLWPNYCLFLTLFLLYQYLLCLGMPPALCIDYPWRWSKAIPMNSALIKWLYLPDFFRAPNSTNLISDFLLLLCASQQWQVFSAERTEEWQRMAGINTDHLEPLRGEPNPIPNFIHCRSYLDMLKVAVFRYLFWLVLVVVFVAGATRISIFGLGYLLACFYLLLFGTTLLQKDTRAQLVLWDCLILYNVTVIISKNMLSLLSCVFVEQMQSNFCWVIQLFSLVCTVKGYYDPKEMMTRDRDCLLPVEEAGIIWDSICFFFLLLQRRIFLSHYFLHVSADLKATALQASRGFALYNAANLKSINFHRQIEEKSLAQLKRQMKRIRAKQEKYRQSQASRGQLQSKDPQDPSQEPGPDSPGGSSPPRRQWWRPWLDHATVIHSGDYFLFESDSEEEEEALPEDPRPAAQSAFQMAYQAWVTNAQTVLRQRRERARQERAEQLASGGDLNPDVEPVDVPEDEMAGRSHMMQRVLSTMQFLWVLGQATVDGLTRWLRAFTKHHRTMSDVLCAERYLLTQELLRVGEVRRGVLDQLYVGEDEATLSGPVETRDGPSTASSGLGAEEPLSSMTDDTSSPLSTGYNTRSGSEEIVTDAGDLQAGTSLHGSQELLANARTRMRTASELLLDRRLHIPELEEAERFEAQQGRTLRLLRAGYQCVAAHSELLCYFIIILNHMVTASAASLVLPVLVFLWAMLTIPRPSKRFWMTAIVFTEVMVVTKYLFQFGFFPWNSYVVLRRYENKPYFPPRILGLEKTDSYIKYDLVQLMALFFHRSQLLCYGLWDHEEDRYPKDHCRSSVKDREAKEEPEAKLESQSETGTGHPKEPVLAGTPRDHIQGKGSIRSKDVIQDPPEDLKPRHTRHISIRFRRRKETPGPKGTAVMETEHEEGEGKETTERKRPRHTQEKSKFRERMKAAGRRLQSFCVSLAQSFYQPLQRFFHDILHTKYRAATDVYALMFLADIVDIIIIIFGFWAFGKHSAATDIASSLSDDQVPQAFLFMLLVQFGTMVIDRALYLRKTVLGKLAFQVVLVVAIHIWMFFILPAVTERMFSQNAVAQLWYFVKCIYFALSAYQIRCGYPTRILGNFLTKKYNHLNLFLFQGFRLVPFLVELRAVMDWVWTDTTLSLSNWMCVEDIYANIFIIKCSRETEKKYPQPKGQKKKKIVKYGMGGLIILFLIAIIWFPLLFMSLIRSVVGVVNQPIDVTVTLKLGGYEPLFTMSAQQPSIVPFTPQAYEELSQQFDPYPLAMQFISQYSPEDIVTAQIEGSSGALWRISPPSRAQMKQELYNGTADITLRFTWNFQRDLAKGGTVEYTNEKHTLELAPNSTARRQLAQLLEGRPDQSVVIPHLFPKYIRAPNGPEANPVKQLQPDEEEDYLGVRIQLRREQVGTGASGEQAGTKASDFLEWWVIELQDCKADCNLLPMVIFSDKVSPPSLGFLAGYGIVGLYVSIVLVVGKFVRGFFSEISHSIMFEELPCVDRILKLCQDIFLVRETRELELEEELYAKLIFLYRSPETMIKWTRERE

[9] = Metabolic stability in human liver microsomes assessed as half life at 10 uM measured for 60 mins by LC-MS/MS analysis; format: ADME, Microsome
[10] = Metabolic stability in human liver microsomes assessed as intrinsic clearance at 10 uM measured for 60 mins by LC-MS/MS analysis; format: ADME, Microsome; details: read-out: CLH
[11] = Metabolic stability in mouse liver microsomes assessed as half life at 10 uM measured for 60 mins by LC-MS/MS analysis; format: ADME, Microsome
[12] = Toxicity in hind-limb unloading Sprague-Dawley rat model assessed as change in kidney function at 5 uM/kg, ip administered on day 1, 4, 7, 10, 13 and measured on day 14; format: organism-based; details: in vivo, 336 h, time 14 day
[13] = tested on: Rattus norvegicus; assay: Induction of osteogenesis in hind-limb unloading Sprague-Dawley rat model assessed as increase in ALP fluorescent area at 5 uM/kg, ip administered on day 1, 4, 7, 10, 13 and measured on day 14 by immunofluorescence based analysis; format: functional, organism-based; details: time 14.0 day, tested as the 2H-labelled form
[14] = tested on: Rattus norvegicus; assay: Inhibition of disuse osteoporosis in hind-limb unloading Sprague-Dawley rat model assessed as decrease in trabecular separation at 5 uM/kg, ip administered on day 1, 4, 7, 10, 13 and measured on day 14 by micro-CT analysis; format: functional, organism-based; details: time 14.0 day, tested as the 2H-labelled form
[15] = tested on: Rattus norvegicus; assay: Inhibition of disuse osteoporosis in hind-limb unloading Sprague-Dawley rat model assessed as increase in bone volume fraction at 5 uM/kg, ip administered on day 1, 4, 7, 10, 13 and measured on day 14 by micro-CT analysis; format: functional, organism-based; details: time 14.0 day, tested as the 2H-labelled form
[16] = tested on: BMSC; assay: Induction of osteogenesis in BMSC cells (unknown origin) assessed as increase in Runx2 mRNA level incubated for 3 days by RT-qPCR analysis; format: functional, cell-based; details: dose 3-5 µM, time 3.0 day, tested as the 2H-labelled form
[17] = target: Piezo-type mechanosensitive ion channel component 1 (Rattus norvegicus) (UniProt Q0KL00); assay: Agonist activity at Piezo1 in rat BMSC cells assessed as increase in p-Erk level at 5 uM incubated for 5 mins by Western blot analysis; format: cell-based; details: filed as activator, tested as the 2H-labelled form
[18] = tested on: Rattus norvegicus; assay: Inhibition of disuse osteoporosis in hind-limb unloading Sprague-Dawley rat model assessed as increase in trabecular number at 5 uM/kg, ip administered on day 1, 4, 7, 10, 13 and measured on day 14 by micro-CT analysis; format: functional, organism-based; details: time 14.0 day, tested as the 2H-labelled form
[19] = target: Piezo-type mechanosensitive ion channel component 1 (Mus musculus) (UniProt E2JF22); assay: Potency index, ratio of Yoda1 EC50 to test compound […] for agonist activity at Piezo1 in mouse C3H 10T1/2 cells assessed as influx of calcium ions incubated for 2 hrs by Cal-bryte 520 AM dye based analysis; format: cell-based; details: filed as agonist, tested as the 2H-labelled form
[20] = tested on: BMSC; assay: Induction of osteogenesis in BMSC cells (unknown origin) assessed as increase in Osx mRNA level at 5 uM incubated for 3 days by RT-qPCR analysis; format: functional, cell-based; details: time 3.0 day, tested as the 2H-labelled form
[21] = target: T1, Piezo-type mechanosensitive ion channel component 1; assay: Agonist activity at mouse Piezo1 transfected in HEK293T cells expressing PZ1 mutant by fluorescence based assay; format: cell-based
Target sequence in this assay (E2JF22 whole entry, looked up): as the sequence (E2JF22 whole entry) above

[22] = target: T2, Piezo-type mechanosensitive ion channel component 1 (Homo sapiens, UniProt Q92508); assay: Agonist activity at human Piezo1 transfected in HEK293T cells by FLIPR assay; format: cell-based
[23] = target: T2, Piezo-type mechanosensitive ion channel component 1; assay: Potency index, ratio of Yoda1 EC50 to test compound EC50 for agonist activity at Piezo1 (unknown origin); details: filed as agonist

T2 sequence (Q92508 whole entry): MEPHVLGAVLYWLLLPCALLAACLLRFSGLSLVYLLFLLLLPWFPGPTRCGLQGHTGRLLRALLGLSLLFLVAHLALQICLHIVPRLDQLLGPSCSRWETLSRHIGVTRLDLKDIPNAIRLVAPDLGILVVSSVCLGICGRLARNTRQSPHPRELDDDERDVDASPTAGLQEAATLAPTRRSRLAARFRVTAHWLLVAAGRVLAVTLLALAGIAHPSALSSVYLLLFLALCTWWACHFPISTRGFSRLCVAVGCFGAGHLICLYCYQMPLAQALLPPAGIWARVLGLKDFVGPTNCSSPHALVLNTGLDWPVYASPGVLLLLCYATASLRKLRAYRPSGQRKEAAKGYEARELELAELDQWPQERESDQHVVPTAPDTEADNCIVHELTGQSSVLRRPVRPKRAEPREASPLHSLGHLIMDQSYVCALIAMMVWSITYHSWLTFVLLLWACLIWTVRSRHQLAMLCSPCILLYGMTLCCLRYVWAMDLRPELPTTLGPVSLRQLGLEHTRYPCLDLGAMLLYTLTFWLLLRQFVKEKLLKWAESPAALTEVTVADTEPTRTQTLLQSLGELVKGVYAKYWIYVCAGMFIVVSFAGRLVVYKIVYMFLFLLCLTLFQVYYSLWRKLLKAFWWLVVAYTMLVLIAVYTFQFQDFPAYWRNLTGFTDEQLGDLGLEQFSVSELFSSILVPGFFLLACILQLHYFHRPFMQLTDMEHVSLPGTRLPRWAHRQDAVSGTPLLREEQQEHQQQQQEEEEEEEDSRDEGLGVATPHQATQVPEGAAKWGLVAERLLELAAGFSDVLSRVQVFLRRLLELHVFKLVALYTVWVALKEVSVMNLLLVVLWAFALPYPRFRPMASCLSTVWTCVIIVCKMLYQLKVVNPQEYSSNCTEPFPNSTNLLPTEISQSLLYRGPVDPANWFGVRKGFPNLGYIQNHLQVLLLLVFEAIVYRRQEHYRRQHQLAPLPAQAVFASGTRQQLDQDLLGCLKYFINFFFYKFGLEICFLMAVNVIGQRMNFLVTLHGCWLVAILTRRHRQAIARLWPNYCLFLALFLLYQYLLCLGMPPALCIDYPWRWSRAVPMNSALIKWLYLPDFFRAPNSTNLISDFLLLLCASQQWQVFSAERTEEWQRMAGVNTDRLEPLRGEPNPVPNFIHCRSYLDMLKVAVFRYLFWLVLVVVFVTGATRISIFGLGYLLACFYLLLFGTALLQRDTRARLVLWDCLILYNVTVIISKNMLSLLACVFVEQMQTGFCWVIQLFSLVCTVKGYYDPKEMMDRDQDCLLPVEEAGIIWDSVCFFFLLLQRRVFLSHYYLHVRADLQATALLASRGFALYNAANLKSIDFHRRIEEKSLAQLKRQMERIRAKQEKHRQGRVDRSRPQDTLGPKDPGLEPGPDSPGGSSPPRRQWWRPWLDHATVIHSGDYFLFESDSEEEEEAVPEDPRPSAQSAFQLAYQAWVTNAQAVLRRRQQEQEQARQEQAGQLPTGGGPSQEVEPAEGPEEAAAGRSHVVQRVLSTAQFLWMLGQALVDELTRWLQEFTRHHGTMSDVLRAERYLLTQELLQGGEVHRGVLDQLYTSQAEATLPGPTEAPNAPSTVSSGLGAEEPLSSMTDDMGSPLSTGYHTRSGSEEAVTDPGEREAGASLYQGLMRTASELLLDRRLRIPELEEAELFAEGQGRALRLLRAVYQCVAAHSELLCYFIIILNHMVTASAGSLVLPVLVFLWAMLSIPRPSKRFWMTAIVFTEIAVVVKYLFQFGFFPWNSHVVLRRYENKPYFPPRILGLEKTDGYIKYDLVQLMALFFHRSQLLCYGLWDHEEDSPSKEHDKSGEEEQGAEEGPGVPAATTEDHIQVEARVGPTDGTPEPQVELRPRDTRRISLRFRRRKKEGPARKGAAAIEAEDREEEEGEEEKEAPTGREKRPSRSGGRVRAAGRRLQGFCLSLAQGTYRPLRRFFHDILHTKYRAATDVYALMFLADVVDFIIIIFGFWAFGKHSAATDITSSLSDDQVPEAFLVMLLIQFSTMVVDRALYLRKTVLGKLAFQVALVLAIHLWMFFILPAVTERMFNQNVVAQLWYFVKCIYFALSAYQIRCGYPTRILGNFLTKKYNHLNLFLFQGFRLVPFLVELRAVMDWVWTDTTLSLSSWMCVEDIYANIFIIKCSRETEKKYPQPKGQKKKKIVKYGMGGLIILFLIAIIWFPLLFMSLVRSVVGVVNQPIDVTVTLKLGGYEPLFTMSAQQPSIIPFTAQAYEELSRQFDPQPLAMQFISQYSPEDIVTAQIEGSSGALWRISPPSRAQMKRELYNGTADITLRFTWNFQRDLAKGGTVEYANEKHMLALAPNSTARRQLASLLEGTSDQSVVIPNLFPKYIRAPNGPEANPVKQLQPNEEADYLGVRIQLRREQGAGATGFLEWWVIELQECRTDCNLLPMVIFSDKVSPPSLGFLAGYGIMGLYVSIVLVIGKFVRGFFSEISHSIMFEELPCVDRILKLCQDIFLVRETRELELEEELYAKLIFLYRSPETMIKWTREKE
Sequence of Piezo-type mechanosensitive ion channel component 1 (Mus musculus) (E2JF22 whole entry): as the sequence (E2JF22 whole entry) above

SMILES	Percent change in calcium fluorescence ratio relative to control ([1]; filed as agonist)	Percent change in calcium fluorescence ratio relative to control [1]	also measured
CCC(Sc1nnc(-c2cnc(NC[C@@H](C)O)cn2)s1)c1c(Cl)cccc1Cl (stereo partly drawn)	91.3%	–	–
Clc1cccc(Cl)c1CSc1nnc(-c2cnc(N3CC4(COC4)C3)cn2)s1	–	0.1%	–
OC1CN(c2cnc(-c3nnc(SCc4c(Cl)cccc4Cl)s3)cn2)C1	–	36%	–
[2H]C([2H])(Sc1nnc(-c2cnc(NC[C@@H](C)O)cn2)s1)c1c(Cl)cccc1Cl	–	–	half-life at 10 µM [2]: 25.5 min; solubility at 10 min [3]: 57.9 µM (≈ 24.9 µg/mL); Papp [4]: 21 ×10⁻⁶ cm/s; microsomal CLint at 10 µM [5]: 54.4 µL/min/mg; Activity [6]: Non-toxic; microsomal CLint at 10 µM [7]: 88.4 µL/min/mg; EC50 [8]: 44.2 µM; half-life at 10 µM [9]: 16.7 min; microsomal CLint at 10 µM [10]: 83.2 µL/min/mg; half-life at 10 µM [11]: 15.7 min; Activity [12]: Non-toxic
C[C@@H](O)CNc1cnc(-c2nnc(SCc3c(Cl)cccc3Cl)s2)cn1	106%	–	Activity [13]: Active; Activty Reached Almost That Of The Weight-Bearing; Activity [14]: Active; Activity [15]: Active; Activity [16]: Dose-dependent-effect; Activity [17]: Active; The Result Indicates That Compound Emulates Mechanical Stimulation To Activate Piezo1; Activity [18]: Active; Ratio EC50 [19]: 20; Activity [20]: Active; Percent change in calcium fluorescence ratio relative to control ([1]; filed as agonist, tested as the 2H-labelled form): 170%
O=C1CC2(CCN(c3cnc(-c4nnc(SCc5ccc6ncoc6c5)s4)cn3)CC2)CN1	–	31.2%	–
C[C@@H](O)CNc1cnc(-c2nnc(SC(c3c(Cl)cccc3Cl)C3CC3)s2)cn1 (stereo partly drawn)	64.6%	–	–
C[C@@H](O)CNc1cnc(-c2nnc(SCc3ccc4nnn(C)c4c3)s2)cn1	–	35.4%	–
C[C@@H](O)CNc1cnc(-c2nnc(SCc3ccc4ncoc4c3)s2)cn1	50.4%	–	–
CC1(O)CN(c2cnc(-c3nnc(SCc4c(Cl)cccc4Cl)s3)cn2)C1	–	16.1%	–
C[C@@H](O)CNc1cncc(-c2nnc(SCc3c(Cl)cccc3Cl)s2)n1	49.7%	–	–
O[C@H]1CCN(c2cnc(-c3nnc(SCc4c(Cl)cccc4Cl)s3)cn2)C1	–	30.4%	–
C[C@@H](O)CNc1cnc(-c2nnc(SCc3c(Cl)ccc(F)c3Cl)s2)cn1	91.4%	–	–
NC1=NC(=O)[C@H](CC(=O)Nc2ccc(SC(F)F)cc2)S1	–	–	EC50 [21]: 12.9 µM
CC(C)(O)[C@H](F)CNc1cnc(-c2nnc(SCc3c(Cl)cccc3Cl)s2)cn1	45.4%	–	–
O=C1CC2(CCN(c3cnc(-c4nnc(SCc5c(Cl)cccc5Cl)s4)cn3)CC2)CN1	77.3%	–	–
C[C@@H](O)CNc1cnc(-c2nnc(SCc3ccc4scnc4c3)s2)cn1	–	15.4%	–
C[C@H](O)CNc1cnc(-c2nnc(SCc3c(Cl)cccc3Cl)s2)cn1	76.6%	–	–
C[C@@H](O)CNc1cnc(-c2nnc(SCc3ccc4c(cnn4C)c3)s2)cn1	73.5%	–	–
O[C@@H]1CN(c2cnc(-c3nnc(SCc4c(Cl)cccc4Cl)s3)cn2)C[C@@H]1O	74.5%	–	–

SMILES	Percent change in calcium fluorescence ratio relative to control ([1]; filed as agonist)	Percent change in calcium fluorescence ratio relative to control [1]	also measured
Clc1cccc(Cl)c1CSc1nnc(-c2cnccn2)s1	–	30.7%	half-life at 10 µM [2]: 1.33 min; solubility at 10 min [3]: 3.9 µM (≈ 1.39 µg/mL); Papp [4]: 38 ×10⁻⁶ cm/s; microsomal CLint at 10 µM [5]: 1040 µL/min/mg; EC50 [22]: 17.1 µM; microsomal CLint at 10 µM [7]: > 277 µL/min/mg; EC50 [8]: 2.21 µM; half-life at 10 µM [9]: 5.55 min; microsomal CLint at 10 µM [10]: 250 µL/min/mg; half-life at 10 µM [11]: < 5 min
CC(Sc1nnc(-c2cnc(NC[C@@H](C)O)cn2)s1)c1c(Cl)cccc1Cl (stereo partly drawn)	164%	–	–
C[C@@H](O)CNc1cnc(-c2nnc(SCc3ccccc3Cl)s2)cn1	61.9%	–	–
C[C@@H](O)CNc1ccc(-c2nnc(SCc3c(Cl)cccc3Cl)s2)nn1	71.3%	–	–
C[C@@H](O)CNc1ncc(-c2nnc(SCc3c(Cl)cccc3Cl)s2)cn1	41.7%	–	–
FC1(F)CN(c2cnc(-c3nnc(SCc4c(Cl)cccc4Cl)s3)cn2)C1	–	-8%	–
Clc1cccc(Cl)c1CSc1nnc(-c2cnc(Br)cn2)s1	–	8%	–
OCCCNc1cnc(-c2nnc(SCc3c(Cl)cccc3Cl)s2)cn1	65.2%	–	–
C[C@@H](O)CNc1cnc(-c2nnc(SCc3c(Cl)ccnc3Cl)s2)cn1	69.7%	–	–
FC(F)(F)c1cccc(Cl)c1CSc1nnc(-c2cnccn2)o1	–	–	Ratio EC50 [23]: 1.25
OC1CCN(c2cnc(-c3nnc(SCc4c(Cl)cccc4Cl)s3)cn2)CC1	–	2%	–
O=C1CC2(CCN(c3cnc(-c4nnc(SCc5ccc6scnc6c5)s4)cn3)CC2)CN1	–	7.7%	–
Cn1ncc2cc(CSc3nnc(-c4cnc(N5CCC6(CC5)CNC(=O)C6)cn4)s3)ccc21	71.6%	–	–
C[C@@H](O)CNc1cnc(-c2nnc(SCc3c(F)cccc3F)s2)cn1	–	21%	–
Cn1nnc2ccc(CSc3nnc(-c4cnc(N5CCC6(CC5)CNC(=O)C6)cn4)s3)cc21	–	38.8%	–
Cc1nnc(CNC(=O)Nc2ccc(C3CCCCC3)cc2)o1	–	–	EC50 [21]: > 150 µM
O=C(O)c1ccc(-c2nnc(SCc3c(Cl)cccc3Cl)s2)cc1	–	–	Ratio EC50 [23]: 4
OCCOCCNc1cnc(-c2nnc(SCc3c(Cl)cccc3Cl)s2)cn1	56.3%	–	–
OCC1CN(c2cnc(-c3nnc(SCc4c(Cl)cccc4Cl)s3)cn2)C1	–	11.6%	–
